One assay deals with lipid peroxidation. As to the kind of experiment: Ascorbate/Fe^2+ -dependent lipid peroxidation. The following applies: ascorbate/Fe^2+ model, in vitro. Format: biochemical. An excerpt: The indenoindole compounds are efficient as flee-radical scavengers or antioxidants. An assay system measuring the concentration of the compounds of formulas I and II required to inhibit lipid peroxidation by 50% (IC50) was used. The assay system, ascorbate/Fe^2+ -dependent lipid peroxidation, was the same system used in EP-A 409 410 and detailed information about the system is given in said patent specification.

Assay [1] concerns lipid peroxidation in renal tissue. As to the kind of experiment: In vitro hypoxia and reoxygenation of kidney tissue (TBARS formation). It counts as cell-based. Particulars: pH 7.4; rat kidney slices, 37° C., pH 7.40, 40 min hypoxia (argon), 30 min reoxygenation; read-out: pIC50, -log of the concentration needed to reduce TBARS formation by 50% of the corresponding vehicle value (converted). Here is the method:
Lipid peroxidation was also tested in renal tissue. Samples were obtained from anesthetized rats, cut into 2 mm slices and put into 50 ml Erlenmeyer flasks containing 40 mmol 1^-1 Hepes buffer (pH 7.40) 37° C. (10-100 mg tissue per 4 ml buffer). The tissue was made hypoxic for 20 min by bubbling a fine stream of argon gas through the buffer. After that an antioxidant or the corresponding vehicle was added to the buffer and the tissue was kept under argon for an additional period of 20 min. The sample was then reoxygenated by vigourous bubbling of the buffer with 95.5% O2 :CO2. After 30 min reoxygenation the iron chelator deferoxamine mesylate (Ciba Geigy AG, Basel, Switzerland) was added (final concentration 45 μmol 1^-1). The sample was homogenized on ice, quickly frozen in dry-ice and alcohol and stored at -70° C. After thawing the formation of 2-thiobarbituric acid-reactive material (TBARS) was determined (Svensson et al Scand J Clin Invest 1993:53). The potencies of the antioxidants (pIC50 i.e. -log of the concentration (antioxidant) needed to reduce TBARS formation by 50% of the corresponding vehicle value) was for compound I: 6.8 and for compound II: 6.8.

For assay [2] the test system is unchanged. As to the kind of experiment: Ex vivo hypoxia and reoxygenation of renal tissue after oral administration to mice. Format: in vivo, mouse. Particulars: for time after administration up till which lipid peroxidation was abolished: oral dose of 50 mg/kg; for inhibition of lipid peroxidation in renal tissue subjected to ex vivo hypoxia and reoxygenation: oral dose of 50 mg/kg (dose for compounds I and II).

Assay [3] has as its system isolated heart cells (myocytes). As to the kind of experiment: Inhibition of reoxygenation damage in isolated heart cells (LD-leakage). Format: cell-based, rat. The following applies: for prevention of ischemic and reperfusion damage to isolated rat heart cells: additive to organ preservation solutions. Here is the method:
Hearts were collected from 2 and 6 days old rats and the ventricles were dissected free, placed in Hanks balanced salt solution without Ca^2+ and Mg^2+ but with 0.35 g/l sodium-carbonate and cut in small pieces. The cells were dispersed in the same solution but supplemented with collagenase solution (type 1, 0.8 mg/ml) at 37° C. for 10 minutes and centrifuged, 160 xg for 5 minutes. Subsequently, 5 serial 20 minutes digestions were performed. The cells from the initial digestion were discarded. Centrifugation was made after each 20 minutes period and the collage nase solution was changed to Ham's F 10 culture medium, supplemented with 10% fetal bovine serum (FBS), glutamine 2 mM, penicillin 50 IU/ml and streptomycin 50 μg/ml. A modified method to enrich the isolation of myocytes, were used, including replaiting the cells twice for 30 and 90 min, respectively. The myocytes were plated on 35 mm plastic culture dishes at a density of approximately 9×10^5 cells/ml (1.8×10^6 cells/dish). The cells were kept in culture for 6 days at 37° C. and 5% CO2 under aerobic conditions in a Forma Scientific carbon dioxide incubator, 5% CO2. During this period the cells reached confluence and were beating spontaneously at an approximate frequency of 20-40 beats/min. Each culture dish contained 0.9±0.2 mg protein. The supplemented F10-medium was changed each day. The antioxidant compound II was added to the culture medium in ethanol, reaching a final concentration of 0.1% ethanol. The final concentration of compound II in the culture medium was 0.01, 0.1, 1.0 or 5.0 μmol/l. Before starting the experiment the medium above the myocytes were removed and changed to fresh F10-medium supplemented with glutamine, which was made hypoxic by argon bubbling for 1 hour before addition to the cells. The culture plates were transferred to specially designed air tight thermostated chambers. The experiment lasted for 300 min including 60 min hypoxia, when nitrogen (95% N2, 5% CO2) was slowly gassed above the cells, followed by 240 min reoxygenation (95% O2, 5% CO2). Cell viability was determined by leakage of LD into the medium, and was analyzed after various times 1, 30, 60, 90, 120, 180, 240 and 300 min.

The test system of assay [4] is isolated perfused rat heart. As to the kind of experiment: Postischemic recovery of the isolated perfused (Langendorff) heart after six hours cold ischemia. Particulars: for prevention of ischemic and reperfusion damage to isolated perfused rat heart: additive to organ preservation solutions. Here is the method:
Experiments were designed to investigate the effect on the myocardial recovery after six hours cold ischemia when an antioxidative agent compound II, was added to a crystalloid cardioplegic solution, such as Plegisol (Abbott). The retrogradely perfused (Langendorff) isolated rat heart with an intra-ventricular balloon was used. The hearts were single flushed perfused (10 ml, 4° C.) with either plain Plegisol or Plegisol supplemented with 1 μmol/l of compound II. The hearts were then stored for 6 hours in the respective solution at 4° C. In a third group hearts were single flush perfused with Plegisol without storage of the hems.

For assay [5], the system named is oxidation of lipoproteins in human plasma (rabbit smooth muscle cells). The assay can be described thus: Oxidation of lipoproteins in human plasma in the presence of rabbit smooth muscle cells. It counts as cell-based.
The test system of assay [6] is oxidation of lipoproteins in human plasma (mouse peritoneal macrophages). As to the kind of experiment: Oxidation of lipoproteins in human plasma in the presence of mouse peritoneal macrophages. It counts as cell-based, human plasma; mouse cells.
The test system of another assay is rat bone marrow. As to the kind of experiment: Ischemic and reperfusion damage to rat bone marrow. Particulars: additive to organ preservation solutions.
A further assay deals with rat kidney. As to the kind of experiment: Ischemic and reperfusion damage to rat kidney. Particulars: additive to organ preservation solutions.
Another assay deals with rat liver. The assay can be described thus: Ischemic and reperfusion damage to rat liver. The following applies: additive to organ preservation solutions.

Entries after “also recorded” stand apart in the source; their conditions may differ.

As to `COc1cc(C)c2c(c1)C1Cc3ccccc3C1N2` (stereo not drawn) [Compound I, 8-Methoxy-6-methyl-THII], the “pIC50, inhibition of ascorbate/Fe^2+ -dependent lipid peroxidation” value (“pIC50, inhibition” below) in the assay with lipid peroxidation was determined as 8.0. Further, the IC50 in assay [1] is 158 nM. Also, in assay [2], the “time after administration up till which lipid peroxidation was abolished” value is at most 6 h; the “inhibition of lipid peroxidation in renal tissue subjected to ex vivo hypoxia and reoxygenation” value (“inhibition of lipid peroxidation” for short) is given as “abolished lipid peroxidation in renal tissue”. Also, in [3], the “prevention of ischemic and reperfusion damage to isolated rat heart cells” value was “prevent ischemic and reperfusion damage”. Besides, in assay [4], the “prevention of ischemic and reperfusion damage to isolated perfused rat heart” value is “prevent ischemic and reperfusion damage”. Also, the “prevention of oxidation of lipoproteins in human plasma” value (shortened to “prevention … in human plasma”) in assay [5] was “prevent efficiently oxidation of lipoproteins”. In addition, the “prevention … in human plasma” value in assay [6] is recorded as “prevent efficiently oxidation of lipoproteins”. Further, the “prevention of ischemic and reperfusion damage to rat bone marrow” value in the assay on rat bone marrow is “prevent ischemic and reperfusion damage”. Further, in the assay with rat kidney, the “prevention of ischemic and reperfusion damage to rat kidney” value was “prevent ischemic and reperfusion damage”. Moreover, the “prevention of ischemic and reperfusion damage to rat liver” value in the assay with rat liver was “prevent ischemic and reperfusion damage”.
For the compound `COc1cc(C)c2c(c1)C1c3ccccc3CC1N2` (stereo not drawn) [Compound II, 9-Methoxy-7-methyl-iso-THII], the “pIC50, inhibition” value with lipid peroxidation was 8.2. For the same compound, the IC50 in [1] was 158 nM; in assay [3] (Rattus norvegicus, 60 min hypoxia, 240 min reoxygenation, read-out: calculated pIC50 (-logIC50), LD-leakage (converted)) it was 31.6 nM. In assay [2], the “time after administration up till which lipid peroxidation was abolished” value is given as at most 6 h. Further, the “inhibition of lipid peroxidation” value in assay [2] is “abolished lipid peroxidation in renal tissue”. The inhibition at 1 µM in [3] (Rattus norvegicus, 1 μmol/l, 60 min hypoxia, 240 min reoxygenation, read-out: reduction of the damage (LD-leakage)) came to 90%. Also, the “prevention of ischemic and reperfusion damage to isolated rat heart cells” value in assay [3] is “prevent ischemic and reperfusion damage”. Also, the “postischemic LVDP compared to plain Plegisol, in words” value in [4] (Plegisol with 1 μmol/l, 6 hours at 4° C.) is given as “significantly improved; also recorded: drastically improves the functional recovery of rat hearts”. In assay [4] (Plegisol with 1 μmol/l, 6 hours at 4° C., mean±SEM, plain Plegisol 57±11%, without storage 89±1%), the “postischemic left ventricular developed pressure (LVDP)” value is recorded as 90±9 % of preischemic value. Further, the “prevention of ischemic and reperfusion damage to isolated perfused rat heart” value in assay [4] was “prevent ischemic and reperfusion damage”. The “prevention … in human plasma” value in assay [5] and in assay [6] was “prevent efficiently oxidation of lipoproteins” throughout. Besides, the “prevention of ischemic and reperfusion damage to rat bone marrow” value in the assay with rat bone marrow was “prevent ischemic and reperfusion damage”. Moreover, in the assay on rat kidney, the “prevention of ischemic and reperfusion damage to rat kidney” value is “prevent ischemic and reperfusion damage”. Moreover, in the assay on rat liver, the “prevention of ischemic and reperfusion damage to rat liver” value is “prevent ischemic and reperfusion damage”.
Take `Cc1cc(C)c2c(c1)C1(C)Cc3ccccc3C1(C)N2` (stereo not drawn) [Compound III, 4b,6,8,9b-Tetramethyl-THll, reference compound]: in the assay on lipid peroxidation, the “pIC50, inhibition” value is 7.4. For the same compound, the “time after administration up to which inhibitory effect on lipid peroxidation could be detected” value in assay [2] (dose not separately printed for compound III) is recorded as “up to 30 min”. Also, in [2], the “inhibition of lipid peroxidation” value was “only weak inhibitory effect on lipid peroxidation”.
Turning to `Cc1c(C)c2c(c(C)c1O)CCC(C)(CCCC(C)CCCC(C)CCCC(C)C)O2` (stereo not drawn) [α-Tocopherol, reference compound], the “pIC50, inhibition” value in the assay on lipid peroxidation is 5.0.
